From patent EP3928777A1, “4,5-DIHYDRO-OXAZOL-2-YLAMINE DERIVATIVES FOR USE IN THE PREVENTION OR TREATMENT OF ALCOHOL USE DISORDER” (Instytut Biologii Doswiadczalnej im. Marcelego Nenckiego …, priority 2020, dated 2021)

What was measured:
[1] = tested on: C57BL/6 mouse; assay: Amount of alcohol (20%) consumed by alcohol-trained mice in IntelliCages after intraperitoneal injection; type: in vivo; details: versus vehicle control group
Procedure: The study involved 30 C57BL/6 mouse subjects that had undergone a two-month, earlier adaptive training to drink alcohol (20%) in IntelliCages (Fig. 1), under typical living conditions (temperature: 21-23°C, humidity 50-60%, 12/12 light-dark cycle). During the adaptive training, the mice had constant access to food and water except for: • 1. 25 days, during which, 2 hours after the beginning of the dark phase, all water bottles were replaced for 3 hours with bottles containing 20% alcohol (no access to clean water at all). • 2. 15 days, during which, 2 hours after the beginning of the dark phase, half of the water bottles were replaced for 3 hours with bottles containing 20% alcohol (possibility to choose water or alcohol). […]
During the adaptive training, the amount of alcohol consumed was recorded for each animal separately. […] The degree of preference for drinking alcohol was determined according to the following criteria: • high-drinkers: on average from 100 to 200 licks of alcohol, with a choice between water and alcohol (3 hour session); • medium-drinkers: on average from 50 to 100 licks of alcohol, with a choice between water and alcohol; (3 hour session); • low-drinkers: on average from 0 to 50 licks of alcohol, with a choice between water and alcohol; (3 hour session); […]

[2] = tested on: animal models; assay: Toxicity in animal models; type: in vivo
Procedure: (§1) The compound of Formula II is additionally easy to prepare and formulate (well soluble in a solution of 5% ethanol and 10% collyphor for an exemplary dose of 10 mg/kg body weight in an intraperitoneal administration), it appears to be non-toxic in animal models.

[3] = Solubility in the injection vehicle; type: physicochemical; details: solution of 5% ethanol and 10% collyphor, for an exemplary dose of 10 mg/kg body weight, intraperitoneal administration
Procedure: as §1

[4] = tested on: mice; assay: Motivation to drink alcohol: progressive nose-poke test in IntelliCages; type: in vivo; details: 10 mg/kg bw intraperitoneal, 20% alcohol, attempts measured over 20 hours, 3 tests, Fig. 5
Procedure: The effect of RO5256390 administration on motivation to drink alcohol was also assessed experimentally. In this experiment a new group of animals was used, these were 13 animals that underwent a three-month adaptive training to drink alcohol (20%) in IntelliCages. The motivation to drink alcohol was then assessed for each animal by conducting 3 tests. For the purposes of the test, the IntelliCage was designed in such a way that access to alcohol for a given animal was only possible, with a certain number of so-called "nose-pokes", meaning cutting the laser beam with the snout when trying to reach the alcohol bottle. In order to drink alcohol, the animal must first cut the beam twice, then 4, 8, 12, 16 times etc. After the required number of nose-pokes are made, the alcohol-blocking door opens. The more attempts to get into the alcohol bottle and the greater the number of beam intersection events achieved, the greater the motivation to drink alcohol. Each test started when half of the water bottles was replaced with 20% alcohol bottles. During the next 20 hours the number of drinking attempts was measured for each animal. After 3 series of motivational tests, which were carried out at weekly intervals, the animals were divided into two experimental groups. […]

[5] = tested on: cocaine-dependent or binge eating animals; details: cited from earlier work

CC[C@@H](C[C@H]1COC(N)=N1)c1ccccc1 [RO5256390]
amount of consumed alcohol during 20 hours after injection ([1]; 10 mg/kg bw intraperitoneal, 20% alcohol, Fig. 3): statistically significant lower amount of alcohol
amount of consumed alcohol in the 20 hours post injection after a 10 day abstinence period ([1]; access to alcohol blocked for 10 days, treated as previously (10 mg/kg bw i.p.), Fig. 4): statistically significantly lower amount of alcohol
toxicity [2]: non-toxic
solubility [3]: well soluble
motivation to drink alcohol (number of alcohol drinking attempts) [4]: reduces the motivation to drink alcohol
suppressing compulsive behavior [5]: effective in suppressing compulsive behavior
